{"source": "paper PMC10382584", "about": "“Macrocyclization of linear molecules by deep learning to facilitate macrocyclic drug candidates discovery” (Nature Communications, 2023);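 further: KINOMEscan kinase panel binding assay, signal normalized between DMSO as 100% and a positive control compound as 0%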", "experiment_in_all_cases": "biochemical", "set-up_in_all_cases": "DiscoveRx KINOMEscan competition binding, percent of DMSO control signal at 100 nM", "conditions_in_all_cases": "read-out: Fig. 4a / Percent Control / Compound 1; percent of DMSO control, competition binding", "key": {"[1]": {"biological_target": "T1, ADCK3 (Homo sapiens, UniProt Q8NI60)", "T1 construct": "gene COQ8A"}, "[2]": {"biological_target": "T2, BIKE (Homo sapiens, UniProt Q9NSY1)", "T2 construct": "gene BMP2K"}, "[3]": {"biological_target": "CAMKK2 (Homo sapiens, UniProt Q96RR4)"}, "[4]": {"biological_target": "CDK5 (Homo sapiens, UniProt Q00535)"}, "[5]": {"biological_target": "CSK (Homo sapiens, UniProt P41240)"}, "[6]": {"biological_target": "CSNK1G1 (Homo sapiens, UniProt Q9HCP0)"}, "[7]": {"biological_target": "EPHB2 (Homo sapiens, UniProt P29323)"}, "[8]": {"biological_target": "EPHB4 (Homo sapiens, UniProt P54760)"}, "[9]": {"biological_target": "FLT1 (Homo sapiens, UniProt P17948)"}, "[10]": {"biological_target": "T3, ICK (Homo sapiens, UniProt Q9UPZ9)", "T3 construct": "gene CILK1", "T3 sequence (Q9UPZ9 whole entry)": "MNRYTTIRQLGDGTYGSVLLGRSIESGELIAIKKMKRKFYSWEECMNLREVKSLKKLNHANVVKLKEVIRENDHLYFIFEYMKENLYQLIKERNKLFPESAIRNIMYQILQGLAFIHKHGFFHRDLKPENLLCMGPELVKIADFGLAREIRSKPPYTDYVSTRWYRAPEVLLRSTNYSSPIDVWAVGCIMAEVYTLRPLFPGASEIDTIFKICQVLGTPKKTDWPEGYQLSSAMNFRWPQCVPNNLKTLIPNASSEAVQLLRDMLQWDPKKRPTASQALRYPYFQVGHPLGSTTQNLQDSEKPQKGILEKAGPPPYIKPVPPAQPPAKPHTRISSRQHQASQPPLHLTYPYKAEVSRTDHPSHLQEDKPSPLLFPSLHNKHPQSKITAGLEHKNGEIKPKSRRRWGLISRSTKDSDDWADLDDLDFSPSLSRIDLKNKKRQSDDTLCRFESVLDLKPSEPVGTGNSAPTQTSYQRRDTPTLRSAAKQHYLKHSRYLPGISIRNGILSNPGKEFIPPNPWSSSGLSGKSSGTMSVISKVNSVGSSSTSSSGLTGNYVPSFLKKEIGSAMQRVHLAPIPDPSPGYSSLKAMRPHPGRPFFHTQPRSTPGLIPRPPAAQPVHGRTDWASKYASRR"}, "[11]": {"biological_target": "T4, IKK-epsilon (Homo sapiens, UniProt Q14164)", "T4 construct": "gene IKBKE"}, "[12]": {"biological_target": "INSRR (Homo sapiens, UniProt P14616)", "sequence (P14616 whole entry)": "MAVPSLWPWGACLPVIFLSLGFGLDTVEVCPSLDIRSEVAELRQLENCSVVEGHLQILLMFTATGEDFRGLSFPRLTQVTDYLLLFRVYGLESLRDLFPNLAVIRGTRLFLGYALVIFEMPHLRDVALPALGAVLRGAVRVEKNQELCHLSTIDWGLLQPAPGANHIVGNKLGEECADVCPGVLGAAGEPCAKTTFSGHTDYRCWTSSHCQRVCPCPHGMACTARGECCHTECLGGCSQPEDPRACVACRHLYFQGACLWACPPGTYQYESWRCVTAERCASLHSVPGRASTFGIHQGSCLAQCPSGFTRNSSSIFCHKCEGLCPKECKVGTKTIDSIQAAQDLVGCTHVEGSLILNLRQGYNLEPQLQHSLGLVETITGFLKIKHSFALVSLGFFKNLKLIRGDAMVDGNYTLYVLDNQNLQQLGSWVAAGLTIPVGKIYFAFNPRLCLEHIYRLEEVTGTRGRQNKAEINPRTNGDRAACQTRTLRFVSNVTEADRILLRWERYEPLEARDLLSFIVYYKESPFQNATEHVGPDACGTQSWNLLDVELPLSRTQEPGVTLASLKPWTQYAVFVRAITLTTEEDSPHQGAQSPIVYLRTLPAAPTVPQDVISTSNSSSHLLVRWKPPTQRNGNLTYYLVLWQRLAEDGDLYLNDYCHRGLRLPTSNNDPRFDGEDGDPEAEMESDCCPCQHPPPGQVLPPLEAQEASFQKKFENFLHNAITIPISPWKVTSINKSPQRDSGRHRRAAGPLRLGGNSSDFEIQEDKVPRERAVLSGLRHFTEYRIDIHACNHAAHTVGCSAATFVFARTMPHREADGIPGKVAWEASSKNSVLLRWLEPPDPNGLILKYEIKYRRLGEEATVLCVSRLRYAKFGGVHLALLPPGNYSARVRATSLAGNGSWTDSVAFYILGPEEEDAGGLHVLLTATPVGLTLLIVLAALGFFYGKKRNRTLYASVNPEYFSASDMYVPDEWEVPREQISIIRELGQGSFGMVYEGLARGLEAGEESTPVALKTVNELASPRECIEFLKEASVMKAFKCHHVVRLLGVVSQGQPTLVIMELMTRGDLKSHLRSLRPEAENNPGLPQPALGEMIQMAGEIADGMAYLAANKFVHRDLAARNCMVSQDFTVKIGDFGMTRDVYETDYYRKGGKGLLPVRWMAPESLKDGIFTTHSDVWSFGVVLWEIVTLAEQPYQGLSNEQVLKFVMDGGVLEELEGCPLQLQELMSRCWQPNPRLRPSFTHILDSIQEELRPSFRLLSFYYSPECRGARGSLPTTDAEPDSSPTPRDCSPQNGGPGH"}, "[13]": {"biological_target": "T5, JAK1(JH2domain-pseudokinase) (Homo sapiens, UniProt P23458)", "T5 construct": "JH2domain-pseudokinase", "T5 sequence (P23458 whole entry)": "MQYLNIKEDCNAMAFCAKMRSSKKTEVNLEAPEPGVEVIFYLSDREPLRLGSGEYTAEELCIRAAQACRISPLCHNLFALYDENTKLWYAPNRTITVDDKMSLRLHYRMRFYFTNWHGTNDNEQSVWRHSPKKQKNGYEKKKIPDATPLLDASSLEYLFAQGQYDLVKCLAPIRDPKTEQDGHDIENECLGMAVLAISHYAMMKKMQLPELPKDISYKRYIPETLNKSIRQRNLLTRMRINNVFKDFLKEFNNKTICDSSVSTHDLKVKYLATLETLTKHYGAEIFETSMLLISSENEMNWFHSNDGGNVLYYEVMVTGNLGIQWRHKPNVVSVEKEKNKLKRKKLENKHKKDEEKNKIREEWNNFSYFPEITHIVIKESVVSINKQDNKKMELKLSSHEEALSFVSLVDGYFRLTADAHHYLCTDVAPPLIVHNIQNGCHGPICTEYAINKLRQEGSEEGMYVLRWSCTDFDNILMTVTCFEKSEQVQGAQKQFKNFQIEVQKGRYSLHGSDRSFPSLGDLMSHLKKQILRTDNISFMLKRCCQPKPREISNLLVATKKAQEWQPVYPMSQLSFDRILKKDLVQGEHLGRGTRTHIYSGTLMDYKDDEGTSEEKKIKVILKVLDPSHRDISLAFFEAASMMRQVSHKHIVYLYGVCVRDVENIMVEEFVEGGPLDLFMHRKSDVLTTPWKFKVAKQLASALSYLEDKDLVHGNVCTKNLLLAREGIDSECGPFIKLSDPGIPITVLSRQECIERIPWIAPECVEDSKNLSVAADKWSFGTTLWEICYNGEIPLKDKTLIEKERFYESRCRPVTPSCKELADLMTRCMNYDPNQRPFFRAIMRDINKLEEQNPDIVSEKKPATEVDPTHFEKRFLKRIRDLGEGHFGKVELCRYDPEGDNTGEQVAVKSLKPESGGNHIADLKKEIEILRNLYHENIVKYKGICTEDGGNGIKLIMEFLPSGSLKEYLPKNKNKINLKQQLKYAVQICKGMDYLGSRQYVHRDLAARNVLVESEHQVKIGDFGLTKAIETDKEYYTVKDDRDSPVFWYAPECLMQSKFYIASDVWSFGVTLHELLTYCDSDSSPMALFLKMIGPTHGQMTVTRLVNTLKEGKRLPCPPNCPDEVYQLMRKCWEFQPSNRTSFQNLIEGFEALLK"}, "[14]": {"biological_target": "LRRK2 (Homo sapiens, UniProt Q5S007)"}, "[15]": {"biological_target": "MAP3K3 (Homo sapiens, UniProt Q99759)", "sequence (Q99759 whole entry)": "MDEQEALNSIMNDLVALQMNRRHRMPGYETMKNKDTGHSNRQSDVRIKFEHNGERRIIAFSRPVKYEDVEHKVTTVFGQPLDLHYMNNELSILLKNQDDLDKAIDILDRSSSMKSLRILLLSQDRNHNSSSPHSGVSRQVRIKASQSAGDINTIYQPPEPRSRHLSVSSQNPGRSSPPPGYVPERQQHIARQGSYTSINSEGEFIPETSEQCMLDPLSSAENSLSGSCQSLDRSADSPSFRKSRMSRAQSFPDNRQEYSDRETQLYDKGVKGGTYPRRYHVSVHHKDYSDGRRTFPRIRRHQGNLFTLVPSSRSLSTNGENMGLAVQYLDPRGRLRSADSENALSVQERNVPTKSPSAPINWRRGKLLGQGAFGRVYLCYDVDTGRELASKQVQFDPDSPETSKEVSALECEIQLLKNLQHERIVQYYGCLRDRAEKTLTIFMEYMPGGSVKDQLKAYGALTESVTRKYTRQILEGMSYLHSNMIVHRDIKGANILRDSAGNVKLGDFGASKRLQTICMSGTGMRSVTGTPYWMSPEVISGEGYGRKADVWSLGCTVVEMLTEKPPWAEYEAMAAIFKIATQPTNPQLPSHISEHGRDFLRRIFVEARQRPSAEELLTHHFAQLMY"}, "[16]": {"biological_target": "MAP4K5 (Homo sapiens, UniProt Q9Y4K4)"}, "[17]": {"biological_target": "MAST1 (Homo sapiens, UniProt Q9Y2H9)"}, "[18]": {"biological_target": "MKNK1 (Homo sapiens, UniProt Q9BUB5)"}, "[19]": {"biological_target": "MST1R (Homo sapiens, UniProt Q04912)"}, "[20]": {"biological_target": "NEK6 (Homo sapiens, UniProt Q9HC98)", "sequence (Q9HC98 whole entry)": "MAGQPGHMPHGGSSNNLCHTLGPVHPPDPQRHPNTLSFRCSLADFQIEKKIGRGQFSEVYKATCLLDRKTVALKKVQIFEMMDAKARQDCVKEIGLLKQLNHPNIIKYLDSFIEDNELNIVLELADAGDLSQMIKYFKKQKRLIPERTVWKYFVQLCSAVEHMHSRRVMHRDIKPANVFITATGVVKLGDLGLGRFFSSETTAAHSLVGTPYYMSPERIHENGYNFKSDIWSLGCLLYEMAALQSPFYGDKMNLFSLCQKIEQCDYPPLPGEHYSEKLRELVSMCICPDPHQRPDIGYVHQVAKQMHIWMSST"}, "[21]": {"biological_target": "T6, PCTK2 (Homo sapiens, UniProt Q00537)", "T6 construct": "gene CDK17"}, "[22]": {"biological_target": "PDGFRA (Homo sapiens, UniProt P16234)"}, "[23]": {"biological_target": "PHKG1 (Homo sapiens, UniProt Q16816)", "sequence (Q16816 whole entry)": "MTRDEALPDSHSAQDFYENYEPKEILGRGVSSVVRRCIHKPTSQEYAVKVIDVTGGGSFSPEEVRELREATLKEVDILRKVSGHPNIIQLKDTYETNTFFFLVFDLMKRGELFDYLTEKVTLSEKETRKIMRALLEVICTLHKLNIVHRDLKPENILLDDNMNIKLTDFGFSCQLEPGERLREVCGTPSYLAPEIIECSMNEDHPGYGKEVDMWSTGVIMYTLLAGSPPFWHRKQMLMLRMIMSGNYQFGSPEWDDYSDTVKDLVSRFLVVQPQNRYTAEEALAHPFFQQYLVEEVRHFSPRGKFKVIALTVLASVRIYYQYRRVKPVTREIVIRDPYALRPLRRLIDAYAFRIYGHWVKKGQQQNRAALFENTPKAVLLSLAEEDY"}, "[24]": {"biological_target": "SRPK1 (Homo sapiens, UniProt Q96SB4)", "sequence (Q96SB4 whole entry)": "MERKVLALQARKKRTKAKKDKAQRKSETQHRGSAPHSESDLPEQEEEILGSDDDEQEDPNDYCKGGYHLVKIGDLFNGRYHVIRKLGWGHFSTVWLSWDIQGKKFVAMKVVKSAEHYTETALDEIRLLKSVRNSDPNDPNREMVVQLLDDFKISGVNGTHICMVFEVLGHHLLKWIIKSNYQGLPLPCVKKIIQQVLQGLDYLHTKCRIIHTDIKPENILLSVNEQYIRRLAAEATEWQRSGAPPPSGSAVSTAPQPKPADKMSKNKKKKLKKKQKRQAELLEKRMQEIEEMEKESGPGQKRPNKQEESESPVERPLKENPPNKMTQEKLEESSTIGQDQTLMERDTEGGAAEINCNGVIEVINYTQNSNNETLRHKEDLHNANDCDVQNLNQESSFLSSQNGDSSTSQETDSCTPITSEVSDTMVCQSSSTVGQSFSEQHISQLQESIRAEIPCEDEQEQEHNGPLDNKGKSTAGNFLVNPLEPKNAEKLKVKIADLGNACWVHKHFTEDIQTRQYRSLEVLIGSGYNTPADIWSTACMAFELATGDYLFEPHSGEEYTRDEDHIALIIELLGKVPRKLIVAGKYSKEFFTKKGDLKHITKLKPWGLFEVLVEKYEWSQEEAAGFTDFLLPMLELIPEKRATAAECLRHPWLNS"}, "[25]": {"biological_target": "TAOK3 (Homo sapiens, UniProt Q9H2K8)"}}, "data": [{"smiles": "Cc1cnc2nc1Nc1cccc(c1)COCc1cc(ccc1OCCN1CCCC1)N2", "note": "[Compound 1]", "values": [{"measurement": "remaining binding at 0.1 µM", "setting": "[1]", "value": 96, "unit": "%"}, {"measurement": "remaining binding at 0.1 µM", "setting": "[2]", "value": 47, "unit": "%"}, {"measurement": "remaining binding at 0.1 µM", "setting": "[3]", "value": 96, "unit": "%"}, {"measurement": "remaining binding at 0.1 µM", "setting": "[4]", "value": 100, "unit": "%"}, {"measurement": "remaining binding at 0.1 µM", "setting": "[5]", "value": 100, "unit": "%"}, {"measurement": "remaining binding at 0.1 µM", "setting": "[6]", "value": 91, "unit": "%"}, {"measurement": "remaining binding at 0.1 µM", "setting": "[7]", "value": 88, "unit": "%"}, {"measurement": "remaining binding at 0.1 µM", "setting": "[8]", "value": 100, "unit": "%"}, {"measurement": "remaining binding at 0.1 µM", "setting": "[9]", "value": 100, "unit": "%"}, {"measurement": "remaining binding at 0.1 µM", "setting": "[10]", "value": 80, "unit": "%"}, {"measurement": "remaining binding at 0.1 µM", "setting": "[11]", "value": 100, "unit": "%"}, {"measurement": "remaining binding at 0.1 µM", "setting": "[12]", "value": 89, "unit": "%"}, {"measurement": "remaining binding at 0.1 µM", "setting": "[13]", "value": 36, "unit": "%"}, {"measurement": "remaining binding at 0.1 µM", "setting": "[14]", "value": 85, "unit": "%"}, {"measurement": "remaining binding at 0.1 µM", "setting": "[15]", "value": 74, "unit": "%"}, {"measurement": "remaining binding at 0.1 µM", "setting": "[16]", "value": 98, "unit": "%"}, {"measurement": "remaining binding at 0.1 µM", "setting": "[17]", "value": 94, "unit": "%"}, {"measurement": "remaining binding at 0.1 µM", "setting": "[18]", "value": 93, "unit": "%"}, {"measurement": "remaining binding at 0.1 µM", "setting": "[19]", "value": 100, "unit": "%"}, {"measurement": "remaining binding at 0.1 µM", "setting": "[20]", "value": 100, "unit": "%"}, {"measurement": "remaining binding at 0.1 µM", "setting": "[21]", "value": 98, "unit": "%"}, {"measurement": "remaining binding at 0.1 µM", "setting": "[22]", "value": 73, "unit": "%"}, {"measurement": "remaining binding at 0.1 µM", "setting": "[23]", "value": 87, "unit": "%"}, {"measurement": "remaining binding at 0.1 µM", "setting": "[24]", "value": 97, "unit": "%"}, {"measurement": "remaining binding at 0.1 µM", "setting": "[25]", "value": 56, "unit": "%"}]}]}
